Where two headings read alike, the source gives them in different places.
How the values were obtained:
[1] = molecular target: GDP-bound KRAS protein (aa 1-169), containing both G12C and C118A amino acid substitutions (Homo sapiens (Human), UniProt P01116, C118A/G12C); assay: Coupled nucleotide exchange assay (SOS-mediated nucleotide exchange, AlphaScreen); format: biochemical; conditions: 5 min compound pre-incubation; for IC50: read-out: Coupled exchange IC50 (5 min; μM)
[2] = test system: Phosphorylation of ERK1/2 in A549 cells; assay: Phospho-ERK1/2 MSD assay in A549 cells; format: cell-based; conditions: read-out: p-ERK IC50 (2 h, A549; μM), 2 h compound treatment, A549 cells, EGF stimulated
Outline: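 MSD electrochemiluminescent read-out of phospho-ERK1/2 in RIPA lysates. Cells in RPMI 1640 with 10% FBS received titrated compound for 2 or 4 h, then 10 ng/mL EGF for 10 min before ice-cold PBS wash and lysis.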

[3] = test system: Phosphorylation of ERK1/2 in MIA PaCa-2 cells; assay: Phospho-ERK1/2 MSD assay in MIA PaCa-2 cells; format: cell-based; conditions: read-out: p-ERK IC50 (2 h, MiaPaCa-2; μM), 2 h compound treatment, MIA PaCa-2 cells, EGF stimulated
Outline: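 Phospho-ERK1/2 measured by MSD electrochemiluminescence kit in RIPA lysates of MIA PaCa-2 cells. Cells were treated with compound titrations for 2 or 4 h at 37 °C, 5% CO2, followed by a 10 min pulse of 10 ng/mL EGF.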

Sequence of GDP-bound KRAS protein (aa 1-169), containing both G12C and C118A amino acid substitutions (P01116 other isoform, or with tags, fused parts or gaps G12C/C118A): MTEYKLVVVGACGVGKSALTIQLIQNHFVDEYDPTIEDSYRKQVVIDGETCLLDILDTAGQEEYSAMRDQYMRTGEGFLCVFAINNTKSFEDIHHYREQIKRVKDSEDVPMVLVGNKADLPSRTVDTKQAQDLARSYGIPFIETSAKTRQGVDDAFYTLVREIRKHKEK

Coupled exchange IC50 (5 min; μM) [1] [µM] | Structure (SMILES) | IC50 [1] [µM] | IC50 ([2]; Homo sapiens, A549, 2 h) [µM] | IC50 ([3]; Homo sapiens, MIA PaCa-2, 2 h) [µM] | IC50 [3] [µM] | IC50 [2] [µM]
 | C=CC(=O)N1C[C@H](C)N(c2nc(=O)n(-c3c(CN4CCC4)cccc3C(C)C)c3nc(-c4ccccc4F)c(Cl)cc23)C[C@H]1C [Example 80-12, 1-[2-(azetidin-1-ylmethyl)-6-isopropyl-phenyl]-6-chloro-4-[(2S,5R)-2,5-dimethyl-4-prop-2-enoyl-piperazin-1-yl]-7-(2-fluorophenyl)pyrido[2,3-d]pyrimidin-2-one] | 0.064 | > 7.5 | 0.074 |  | 
 | C=CC(=O)N1CCN(c2nc(=O)n(-c3c(CN(C)C)cccc3C(C)C)c3nc(-c4ccccc4F)c(Cl)cc23)[C@@H](C)C1 [Example 80-13, 6-Chloro-1-[2-[(dimethylamino)methyl]-6-isopropyl-phenyl]-7-(2-fluorophenyl)-4-[(2S)-2-methyl-4-prop-2-enoyl-piperazin-1-yl]pyrido[2,3-d]pyrimidin-2-one] | 0.043 | > 7.5 | 0.053 |  | 
 | C=CC(=O)N1C[C@H](C)N(c2nc(=O)n(-c3c(C)cc(CN(C)C)cc3C(C)C)c3nc(-c4ccccc4F)c(F)cc23)C[C@H]1C [Example 80-20, 1-[4-[(Dimethylamino)methyl]-2-isopropyl-6-methyl-phenyl]-4-[(2S,5R)-2,5-dimethyl-4-prop-2-enoyl-piperazin-1-yl]-6-fluoro-7-(2-fluorophenyl)pyrido[2,3-d]pyrimidin-2-one] | 0.763 | > 7.5 |  | 0.735 | 
 | C=CC(=O)N1C[C@H](C)N(c2nc(=O)n(-c3c(C)cc(CN(C)C)cc3C(C)C)c3nc(-c4c(O)cccc4F)c(F)cc23)C[C@H]1C [Example 80-21, 1-[4-[(Dimethylamino)methyl]-2-isopropyl-6-methyl-phenyl]-4-[(2S,5R)-2,5-dimethyl-4-prop-2-enoyl-piperazin-1-yl]-6-fluoro-7-(2-fluoro-6-hydroxy-phenyl)pyrido[2,3-d]pyrimidin-2-one] | 0.25 | > 7.5 | 0.138 |  | 
 | C=CC(=O)N1C[C@H](C)N(c2nc(=O)n(-c3c(C(C)C)cnn3C(C)C)c3nc(-c4ccccc4F)c(Cl)cc23)C[C@H]1C [Example 100-1, 6-Chloro-1-(2,4-diisopropylpyrazol-3-yl)-4-[(2S,5R)-2,5-dimethyl-4-prop-2-enoyl-piperazin-1-yl]-7-(2-fluorophenyl)pyrido[2,3-d]pyrimidin-2-one] | 0.084 | > 7.5 | 0.123 |  | 
 | C=CC(=O)N1C[C@H](C)N(c2nc(=O)n(-c3c(C(C)C)ncnc3C(C)C)c3nc(-c4ccc(C#N)cc4F)c(Cl)cc23)C[C@H]1C [Example 100-2, 4-[6-Chloro-1-(4,6-diisopropylpyrimidin-5-yl)-4-[(2S,5R)-2,5-dimethyl-4-prop-2-enoyl-piperazin-1-yl]-2-oxo-pyrido[2,3-d]pyrimidin-7-yl]-3-fluoro-benzonitrile] | 0.324 | > 7.5 | 0.298 |  | 
 | C=CC(=O)N1C[C@H](C)N(c2nc(=O)n(-c3c(C(C)C)ncnc3C(C)C)c3nc(-c4ccccc4C(C)C)c(Cl)cc23)C[C@H]1C [Example 100-4, 6-Chloro-1-(4,6-diisopropylpyrimidin-5-yl)-4-[(2S,5R)-2,5-dimethyl-4-prop-2-enoyl-piperazin-1-yl]-7-(2-isopropylphenyl) pyrido[2,3-d]pyrimidin-2-one] | 0.006 | > 7.5 | 0.106 |  | 
 | C=CC(=O)N1C[C@H](C)N(c2nc(=O)n(-c3c(C(C)C)cncc3C(C)C)c3nc(-c4c(O)cccc4F)c(F)cc23)C[C@H]1C [Example 101-1, 1-(3,5-Diisopropyl-4-pyridyl)-4-[(2S,5R)-2,5-dimethyl-4-prop-2-enoyl-piperazin-1-y]-6-fluoro-7-(2-fluoro-6-hydroxy-phenyl)pyrido[2,3-d]pyrimidin-2-one] | 0.134 |  |  | 0.116 | > 7.5
 | C=CC(=O)N1C[C@H](C)N(c2nc(=O)n(-c3c(C(C)C)ncnc3C(C)C)c3nc(-c4ccccc4F)c(F)cc23)C[C@H]1C [Example 101-2, 1-(4,6-Diisopropylpyrimidin-5-yl)-4-[(2S,5R)-2,5-dimethyl-4-prop-2-enoyl-piperazin-1-yl]-6-fluoro-7-(2-fluorophenyl)pyrido [2,3-d]pyrimidin-2-one] | 0.16 | > 7.5 | 0.116 |  | 
 | C=CC(=O)N1C[C@@H](C)N(c2nc(=O)n(-c3c(C(C)C)ncnc3C(C)C)c3nc(-c4ccccc4F)c(F)cc23)[C@@H](C)C1 [Example 101-3, 1-(4,6-Diisopropylpyrimidin-5-yl)-4-[(2R,6S)-2,6-dimethyl-4-prop-2-enoyl-piperazin-1-yl]-6-fluoro-7-(2-fluorophenyl)pyrido [2,3-d]pyrimidin-2-one] | 0.195 | > 7.5 | 0.208 |  | 
 | C=CC(=O)N1C[C@H](C)N(c2nc(=O)n(-c3c(Cl)ncnc3C(C)C)c3nc(-c4ccccc4F)c(Cl)cc23)C[C@H]1C [Example 102-5, 6-Chloro-1-(4-chloro-6-isopropyl-pyrimidin-5-yl)-4-[(2S,5R)-2,5-dimethyl-4-prop-2-enoyl-piperazin-1-yl]-7-(2-fluorophenyl) pyrido[2,3-d]pyrimidin-2-one] | 0.071 | > 7.5 |  | 0.084 | 
 | C=CC(=O)N1C[C@H](C)N(c2nc(=O)n(-c3c(Cl)ncnc3C(C)C)c3nc(-c4ccccc4C)c(Cl)cc23)C[C@H]1C [Example 102-6, 6-Chloro-1-(4-chloro-6-isopropyl-pyrimidin-5-yl)-4-[(2S,5R)-2,5-dimethyl-4-prop-2-enoyl-piperazin-1-yl]-7-(o-tolyl)pyrido[2,3-d]pyrimidin-2-one] | 0.066 | > 7.5 | 0.063 |  | 
 | C=CC(=O)N1C[C@H](C)N(c2nc(=O)n(-c3c(N(C)C)ccnc3C(C)C)c3nc(-c4ccccc4C(C)C)c(Cl)cc23)C[C@H]1C [Example 103-1, 4-((2S,5R)-4-Acryloyl-2,5-dimethylpiperazin-1-yl)-6-chloro-1-(4-(dimethylamino)-2-isopropylpyridin-3-yl)-7-(2-isopropylphenyl)pyrido[2,3-d]pyrimidin-2(1H)-one] | 0.105 | > 7.5 |  | 0.107 | 
 | C=CC(=O)N1C[C@H](C)N(c2nc(=O)n(-c3c(C(C)C)ncn(C)c3=O)c3nc(-c4ccccc4F)c(Cl)cc23)C[C@H]1C [Example 103-2, 6-Chloro-4-[(2S,5R)-2,5-dimethyl-4-prop-2-enoyl-piperazin-1-yl]-7-(2-fluorophenyl)-1-(4-isopropyl-1-methyl-6-oxo-pyrimidin-5-yl)pyrido[2,3-d]pyrimidin-2-one] | 0.084 | > 7.5 | 0.04 |  | 
0.677 | C=CC(=O)N1C[C@H](C)N(c2nc(=O)n(-c3c(C(C)C)cccc3[S+](C)[O-])c3nc(-c4ccccc4F)c(Cl)cc23)C[C@H]1C (stereo partly drawn) [Example 103-3, 4-((2S,5R)-4-acryloyl-2,5-dimethylpiperazin-1-yl)-6-chloro-7-(2-fluorophenyl)-1-(2-isopropyl-6-(methylsulfinyl)phenyl)pyrido[2,3-d]pyrimidin-2(1H)-one] |  | > 7.5 | 0.143 |  | 
 | C=CC(=O)N1C[C@H](C)N(c2nc(=O)n(-c3c(C(C)C)cncc3C(C)C)c3nc(-c4ccccc4F)c(Cl)cc23)C[C@H]1C [Example 103-4, 6-Chloro-1-(3,5-diisopropyl-4-pyridyl)-4-[(2S,5R)-2,5-dimethyl-4-prop-2-enoyl-piperazin-1-yl]-7-(2-fluorophenyl) pyrido[2,3-d]pyrimidin-2-one] | 0.057 | > 7.5 | 0.062 |  | 
 | C=CC(=O)N1C[C@H](C)N(c2nc(=O)n(-c3c(N(CC)CC)ccnc3C(C)C)c3nc(-c4ccccc4C(C)C)c(Cl)cc23)C[C@H]1C [Example 103-5, 6-Chloro-1-[4-(diethylamino)-2-isopropyl-3-pyridyl]-4-[(2S,5R)-2,5-dimethyl-4-prop-2-enoyl-piperazin-1-yl]-7-(2-isopropylphenyl) pyrido[2,3-d]pyrimidin-2-one] | 0.2 | > 7.5 | 0.507 |  | 
 | C=CC(=O)N1C[C@H](C)N(c2nc(=O)n(-c3c(N(CC)CC)ccnc3C(C)C)c3nc(-c4ccccc4C)c(Cl)cc23)C[C@H]1C [Example 103-6, 6-chloro-1-[4-(diethylamino)-2-isopropyl-3-pyridyl]-4-[(2S,5R)-2,5-dimethyl-4-prop-2-enoyl-piperazin-1-yl]-7-(o-tolyl)pyrido[2,3 d]pyrimidin-2-one] | 0.08 | > 7.5 | 0.474 |  | 
 | C=CC(=O)N1C[C@H](C)N(c2nc(=O)n(-c3c(N(C)C)ccnc3C(C)C)c3nc(-c4ccccc4C)c(Cl)cc23)C[C@H]1C [Example 103-7, 6-Chloro-1-[4-(dimethylamino)-2-isopropyl-3-pvridyl]-4-[(2S,5R)-2,5-dimethyl-4-prop-2-enoyl-piperazin-1-yl]-7-(o-tolyl)pyrido[2,3-d]pyrimidin-2-one] | 0.143 | 3.75 |  | 0.128 | 

Reference: patent US11285156B2, “Substituted piperazines as KRAS G12C inhibitors” (Amgen Inc., priority 2018, dated 2022)
